From patent US11878975B2, “Substituted indole compounds useful as TLR inhibitors” (BRISTOL-MYERS SQUIBB COMPANY, priority 2017, dated 2024)

Columns and labels:
Type in all cases: cell-based
[1] = molecular target: T1, human TLR7 (Homo sapiens, UniProt Q9NYK1); experiment: TLR7 inhibition reporter assay (HEK-Blue cells, SEAP reporter, gardiquimod stimulation); conditions: HEK-Blue cells overexpressing human TLR7, SEAP reporter, gardiquimod 7.5 μM
T1 construct: host or cells: HEK-Blue cells
T1 sequence (Q9NYK1 27-1049): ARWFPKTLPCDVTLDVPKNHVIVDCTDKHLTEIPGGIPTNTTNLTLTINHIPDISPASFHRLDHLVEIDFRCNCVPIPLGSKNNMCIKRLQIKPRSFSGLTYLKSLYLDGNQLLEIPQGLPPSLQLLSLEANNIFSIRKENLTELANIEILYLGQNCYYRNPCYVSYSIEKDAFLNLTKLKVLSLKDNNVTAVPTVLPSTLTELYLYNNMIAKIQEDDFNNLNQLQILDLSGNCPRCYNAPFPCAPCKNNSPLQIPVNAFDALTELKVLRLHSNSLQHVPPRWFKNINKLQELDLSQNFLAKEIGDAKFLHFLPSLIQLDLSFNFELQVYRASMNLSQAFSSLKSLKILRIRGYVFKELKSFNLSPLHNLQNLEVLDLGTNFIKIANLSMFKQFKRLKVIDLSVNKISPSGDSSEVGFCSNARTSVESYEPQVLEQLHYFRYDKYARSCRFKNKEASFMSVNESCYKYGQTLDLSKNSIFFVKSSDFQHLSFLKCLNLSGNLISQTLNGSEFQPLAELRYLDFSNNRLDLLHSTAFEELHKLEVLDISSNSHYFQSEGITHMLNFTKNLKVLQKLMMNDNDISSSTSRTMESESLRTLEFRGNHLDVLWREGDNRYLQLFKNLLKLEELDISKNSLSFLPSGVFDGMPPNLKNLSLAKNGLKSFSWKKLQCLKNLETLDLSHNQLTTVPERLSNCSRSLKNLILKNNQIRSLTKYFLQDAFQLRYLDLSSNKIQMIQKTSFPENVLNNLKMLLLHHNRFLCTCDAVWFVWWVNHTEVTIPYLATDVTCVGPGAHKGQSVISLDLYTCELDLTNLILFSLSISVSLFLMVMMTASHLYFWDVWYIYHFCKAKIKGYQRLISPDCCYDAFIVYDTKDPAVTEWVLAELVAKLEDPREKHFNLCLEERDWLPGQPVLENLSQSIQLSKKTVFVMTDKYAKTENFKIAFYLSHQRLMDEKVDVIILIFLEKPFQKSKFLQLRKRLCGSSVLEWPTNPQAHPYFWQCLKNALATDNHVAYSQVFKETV
How it was run: (§1)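 Percent inhibition is derived from SEAP signal, scaled between agonist-plus-DMSO wells and wells given a known inhibitor. Test compounds (0.05 nM–50 μM) are pre-incubated 30 min at room temperature before agonist addition (TLR7: 7.5 μM gardiquimod; TLR8: 15.9 μM R848; TLR9: 5 nM ODN2006) and 22 h culture at 37 °C.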

[2] = molecular target: T2, human TLR8 (Homo sapiens, UniProt Q9NR97); experiment: TLR8 inhibition reporter assay (HEK-Blue cells, SEAP reporter, R848 stimulation); conditions: HEK-Blue cells overexpressing human TLR8, SEAP reporter, R848 15.9 μM
T2 construct: host or cells: HEK-Blue cells
T2 sequence (Q9NR97 27-1041): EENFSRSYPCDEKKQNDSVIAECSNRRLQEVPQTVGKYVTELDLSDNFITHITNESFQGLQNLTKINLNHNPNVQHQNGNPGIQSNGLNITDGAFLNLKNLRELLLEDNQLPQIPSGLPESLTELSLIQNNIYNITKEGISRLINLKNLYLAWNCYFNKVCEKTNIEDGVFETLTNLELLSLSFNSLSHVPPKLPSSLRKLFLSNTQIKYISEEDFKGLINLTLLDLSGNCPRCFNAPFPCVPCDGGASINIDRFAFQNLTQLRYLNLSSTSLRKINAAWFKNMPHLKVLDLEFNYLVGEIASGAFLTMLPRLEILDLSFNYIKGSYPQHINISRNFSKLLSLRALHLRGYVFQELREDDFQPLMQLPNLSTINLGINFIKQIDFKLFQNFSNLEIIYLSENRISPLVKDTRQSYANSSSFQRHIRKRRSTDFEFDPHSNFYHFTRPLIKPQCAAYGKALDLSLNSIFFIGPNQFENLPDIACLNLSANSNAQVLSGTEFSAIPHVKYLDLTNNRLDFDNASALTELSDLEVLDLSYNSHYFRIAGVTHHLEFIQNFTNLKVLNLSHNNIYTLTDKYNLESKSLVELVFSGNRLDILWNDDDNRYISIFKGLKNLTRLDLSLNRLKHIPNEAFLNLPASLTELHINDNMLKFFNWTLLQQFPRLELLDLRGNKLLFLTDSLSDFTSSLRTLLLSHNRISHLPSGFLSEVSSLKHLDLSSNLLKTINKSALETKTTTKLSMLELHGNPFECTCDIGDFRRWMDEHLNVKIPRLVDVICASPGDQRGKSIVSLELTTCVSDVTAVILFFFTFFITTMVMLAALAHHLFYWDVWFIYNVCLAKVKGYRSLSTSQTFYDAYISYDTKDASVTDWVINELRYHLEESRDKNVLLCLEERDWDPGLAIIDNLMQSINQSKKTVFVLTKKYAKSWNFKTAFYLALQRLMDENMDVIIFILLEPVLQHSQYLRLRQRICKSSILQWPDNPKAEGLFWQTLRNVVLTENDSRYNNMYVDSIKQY
How it was run: as §1

[3] = molecular target: T3, human TLR9 (Homo sapiens, UniProt Q9NR96); experiment: TLR9 inhibition reporter assay (HEK-Blue cells, SEAP reporter, ODN2006 stimulation); conditions: HEK-Blue cells overexpressing human TLR9, SEAP reporter, ODN2006 5 nM
T3 construct: host or cells: HEK-Blue cells
T3 sequence (Q9NR96 26-1032): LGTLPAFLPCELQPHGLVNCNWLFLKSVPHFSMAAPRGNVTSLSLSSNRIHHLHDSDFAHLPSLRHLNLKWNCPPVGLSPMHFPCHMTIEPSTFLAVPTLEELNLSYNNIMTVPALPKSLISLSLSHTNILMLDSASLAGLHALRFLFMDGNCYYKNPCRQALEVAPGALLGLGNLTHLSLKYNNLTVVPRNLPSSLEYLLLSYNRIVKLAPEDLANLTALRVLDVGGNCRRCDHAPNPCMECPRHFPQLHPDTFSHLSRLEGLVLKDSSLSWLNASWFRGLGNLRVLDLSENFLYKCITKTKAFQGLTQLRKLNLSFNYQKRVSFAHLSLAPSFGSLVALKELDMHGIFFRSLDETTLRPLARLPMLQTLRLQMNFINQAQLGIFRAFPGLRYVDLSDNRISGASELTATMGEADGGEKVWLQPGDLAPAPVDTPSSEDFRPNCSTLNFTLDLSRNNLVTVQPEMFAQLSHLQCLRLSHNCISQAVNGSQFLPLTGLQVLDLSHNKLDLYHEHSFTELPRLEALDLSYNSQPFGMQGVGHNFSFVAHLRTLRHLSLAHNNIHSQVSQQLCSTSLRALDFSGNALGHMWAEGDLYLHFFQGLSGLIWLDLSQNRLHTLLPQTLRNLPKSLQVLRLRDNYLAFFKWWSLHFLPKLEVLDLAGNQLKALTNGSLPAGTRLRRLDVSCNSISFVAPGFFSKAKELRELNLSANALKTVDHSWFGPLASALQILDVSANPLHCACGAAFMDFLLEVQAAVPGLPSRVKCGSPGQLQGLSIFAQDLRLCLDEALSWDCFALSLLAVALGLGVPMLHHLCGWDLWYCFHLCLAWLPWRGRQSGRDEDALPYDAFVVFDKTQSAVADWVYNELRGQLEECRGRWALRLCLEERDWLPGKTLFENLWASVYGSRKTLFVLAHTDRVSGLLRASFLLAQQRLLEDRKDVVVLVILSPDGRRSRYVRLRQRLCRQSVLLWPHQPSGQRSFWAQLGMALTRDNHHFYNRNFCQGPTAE
How it was run: as §1

Row | Compound | IC50 [1] [nM] | IC50 [2] [nM] | IC50 [3] [nM]
1 | CNCC(=O)NC1(C)CCC(c2ccc3[nH]c(-c4cc(OC)c5ncnn5c4)c(C(C)C)c3c2)CC1 (stereo not drawn) [Example 155, N-(4-(3-isopropyl-2-(8-methoxy-[1,2,4]triazolo[1,5-a]pyridin-6-yl)-1H-indol-5-yl)-1-methylcyclohexyl)-2-(methylamino)acetamide] | 6 | 24 | 3700
2 | Cc1cc(-c2[nH]c3ccc(C4CN(CC(C)(C)O)CCO4)cc3c2C(C)C)cc(C)n1 (stereo not drawn) [Example 358] | 91 | 1.9 | 4840
3 | Cc1c(-c2[nH]c3ccc(C4CCC(NC5COC5)CC4)cc3c2C(C)C)cn2ncnc2c1C (single isomer, unassigned) [Example 85] | 0.35 | 0.53 | 2880
4 | COc1cc(-c2[nH]c3ccc(C4CCCN(CC(=O)N(C)C)C4)cc3c2C(C)C)cn2ncnc12 (stereo not drawn) [Example 224] | 2 | 16 | 1830
5 | CNCC(=O)N1CCOC(c2ccc3[nH]c(-c4cc(C)c5ncnn5c4)c(C(C)C)c3c2)C1 (stereo not drawn) [Example 337, 1-(2-(3-isopropyl-2-(8-methyl-[1,2,4]triazolo[1,5-a]pyridin-6-yl)-1H-indol-5-yl)morpholino)-2-(methylamino)ethanone] | 1 | 7.1 | 3280
6 | COc1cc(-c2[nH]c3ccc(C4CCC(N(C)CCC(F)(F)F)CC4)cc3c2C(C)C)cn2ncnc12 (stereo not drawn) [Example 82] | 7 | 23 | 5770
7 | Cc1c(-c2[nH]c3ccc(C4CNC(C)(C)CO4)cc3c2C(C)C)cn2ncnc2c1C (stereo not drawn) [Example 370] | 2 | 0.35 | 14800
8 | CCc1c(-c2ccc(OC)c(OC)c2)[nH]c2ccc(CN3CC4CNCC4C3)cc12 (stereo not drawn) [Example 391] | 164 | 354 | 527
9 | Cc1cc(-c2[nH]c3ccc(C4CN(CC(N)=O)CCO4)cc3c2C(C)C)cc(C)n1 (stereo not drawn) [Example 324] | 44 | 114 | 45000
10 | COc1cc(-c2[nH]c3ccc(C4CN(C(C)C)CCO4)cc3c2C(C)C)cn2ncnc12 (stereo not drawn) [Example 302] | 2 | 0.42 | 2600
11 | Cc1cc(-c2[nH]c3ccc(C4CCCN(CC(=O)N(C)C)C4)cc3c2C(C)C)cc(C)n1 (stereo not drawn) [Example 233] | 15 | 56 | 1350
12 | COc1cc(-c2[nH]c3ccc(C4CCC(N5CC[C@@H](N(C)C)C5)CC4)cc3c2C(C)C)cn2ncnc12 (stereo partly drawn) [Example 28] | 0.17 | 0.26 | 328
13 | COc1cc(-c2[nH]c3ccc(C4CCC(N(C)C(C)C)C4)cc3c2C(C)C)cn2ncnc12 (single isomer, unassigned) [Example 278, N-isopropyl-3-(3-isopropyl-2-(8-methoxy-[1,2,4]triazolo[1,5-a]pyridin-6-yl)-1H-indol-5-yl)-N-methylcyclopentan-1-amine] | 2 | 1.5 | 1410

More lines, now with the values ahead:

Row | IC50 [1] [nM] | IC50 [2] [nM] | IC50 [3] [nM] | Compound
14 | 0.96 | 20 | 12500 | COc1cc(-c2[nH]c3ccc(C4CC5CN(C6COC6)CC5C4)cc3c2C(C)C)cn2ncnc12 (stereo not drawn) [Example 513]
15 | 10 | 2.5 | 3410 | Cc1c(-c2[nH]c3ccc(CC4CN(C(C)C)C4)cc3c2C(C)C)cn2ncnc2c1C [Example 435]
16 | 124 | 56 | 224 | Cc1cc(-c2[nH]c3ccc([C@H]4C[C@H]4C(=O)NC4CCNCC4)cc3c2C(C)C)ccn1 [Example 456]
17 | 3 | 5.4 | 1600 | Cc1cc(-c2[nH]c3ccc(CC4CCCN4Cc4ccccc4)cc3c2C(C)C)cn2ncnc12 (single isomer, unassigned) [Example 397, 5-[(1-benzylpyrrolidin-2-yl)methyl]-2-{8-methyl-[1,2,4]triazolo[1,5-a]pyridin-6-yl}-3-(propan-2-yl)-1H-indole]
18 | 57 | 4.3 | > 50000 | Cc1c(-c2[nH]c3ccc(C4CC(NC5COC5)C4)cc3c2C(C)C)cn(C)c(=O)c1C (stereo not drawn) [Example 496]
19 | 3 | 3.3 | > 50000 | Cc1cc(-c2[nH]c3ccc(C4CCC(N5CCC(F)(F)CC5)CC4)cc3c2C(C)C)cn(C)c1=O (stereo not drawn) [Example 465]
20 | 46 | 27 | 48000 | Cc1c(-c2[nH]c3ccc(C4CN(C5COC5)C4)cc3c2C(C)C)cn(C)c(=O)c1C [Example 485]
21 | 6 | 117 | 3720 | Cc1c(-c2[nH]c3ccc(C4CC5CN(CC#N)CC5C4)cc3c2C(C)C)cn2cnnc2c1C (stereo not drawn) [Example 558]
22 | 2680 | 3240 | 1620 | CCc1c(-c2ccnc(C)c2)[nH]c2ccc(CNC(=O)C3CCNC3)cc12 (stereo not drawn) [Example 445]
